Laboratory results reported in patent US20060093617A1, “Peptides for inducing a CTL and/or HTL response to hepatitis C virus” (Innogenetics, N.V., priority 2004, published 2006).
Where a SMILES comes first, the peptide text is derived from it.

Experiments:
B*0702 = molecular target: T1, B*0702 (Homo sapiens, UniProt P01889); experiment: Competition binding assay using soluble HLA class I; conditions: for Ki: Ki (nM), HLA-B0702 section
T1 construct: endogenous in cells

HLA-Cw07 = molecular target: T2, HLA-Cw07 (Homo sapiens, UniProt P10321); experiment: HLA class I competition cell-based binding assay
T2 construct: endogenous in cells

HLA-Cw06 = molecular target: T3, HLA-Cw06 (Homo sapiens, UniProt P10321, A176E/A330V/C350S/L171W/L180W/L218V/M285V/M309V/M331V/N104K/P208H/Q277E/Q291P/R121W/R243W/S101N/S123Y/S297R/T329A/T363A/V319A/V328M); experiment: HLA class I competition cell-based binding assay
T3 construct: endogenous in cells

HLA-A02 = HLA-A02 (Homo sapiens, UniProt P04439, D140Y/D185E/D98H/E176V/E277Q/G131W/G231S/I119V/I121R/I166T/I218V/L300P/L318F/N151K/N90K/P208A/P217A/Q86G/Q94H/R138H/R169H/T345S); experiment: Competition binding assay using soluble HLA class I
DRB1*0101 = molecular target: T4, DRB1*0101 (Homo sapiens, UniProt P01903+P01911, A100R/D57E/F55L/F60I/F76Y/I96L/L162R/M171V/P40L/Q125E/R42F/V115G/Y59C); experiment: Competition binding assay using soluble HLA class II
T4 construct: endogenous in cells; host or cells: cell lysate

Compound	Ki (B*0702) [nM]	IC50 (DRB1*0101) [nM]	further results
CSCC[C@H](NC(=O)[C@H](Cc1ccc(O)cc1)NC(=O)[C@H](C)NC(=O)CNC(=O)[C@H](Cc1ccccc1)NC(=O)CNC(=O)[C@H](CC(C)C)NC(=O)[C@@H](NC(=O)[C@H](C)N)[C@@H](C)O)C(=O)O (H-ATLGFGAYM-OH)	13000		
CC[C@H](C)[C@H](NC(=O)[C@H](CC(N)=O)NC(=O)[C@H](CCC(N)=O)NC(=O)[C@@H](N)Cc1c[nH]cn1)C(=O)N[C@H](C(=O)N[C@@H](CC(=O)O)C(=O)N[C@H](C(=O)N[C@@H](CCC(N)=O)C(=O)N[C@@H](Cc1ccc(O)cc1)C(=O)O)C(C)C)C(C)C			Ki (HLA-Cw07): 14200 nM
CC(C)C[C@H](NC(=O)CNC(=O)[C@H](CCCNC(=N)N)NC(=O)[C@H](Cc1ccc(O)cc1)NC(=O)[C@H](Cc1ccc(O)cc1)NC(=O)[C@H](C)NC(=O)[C@@H](N)C(C)C)C(=O)N[C@@H](CC(=O)O)C(=O)N[C@H](C(=O)O)C(C)C	1420		Ki (HLA-Cw06): 231 nM
CC(C)C[C@H](NC(=O)[C@@H](NC(=O)[C@H](CCCNC(=N)N)NC(=O)[C@@H](NC(=O)CNC(=O)[C@H](Cc1c[nH]cn1)NC(=O)[C@H](C)NC(=O)[C@H](CC(C)C)NC(=O)[C@H](C)N)C(C)C)C(C)C)C(=O)O	7950		Ki (HLA-Cw06): 3310 nM; Ki (HLA-A02): 627 nM
CC(C)C[C@H](NC(=O)CNC(=O)[C@H](CC(C)C)NC(=O)[C@H](C)NC(=O)[C@H](CO)NC(=O)[C@H](CC(C)C)NC(=O)[C@H](CCCCN)NC(=O)[C@H](C)NC(=O)[C@H](C)N)C(=O)O (H-AAKLSALGL-OH; N-terminus and C-terminus assumed)	277		IC50 (B*0702): 277 nM
CSCC[C@H](NC(=O)CNC(=O)[C@H](CO)NC(=O)[C@@H]1CCCN1C(=O)[C@H](CCCNC(=N)N)NC(=O)[C@H](CCC(=O)O)NC(=O)CNC(=O)[C@@H]1CCCN1C(=O)[C@@H](N)[C@@H](C)O)C(=O)O (H-TPGERPSGM-OH)	199		IC50 (B*0702): 199 nM
CC(C)C[C@H](NC(=O)[C@H](CCCNC(=N)N)NC(=O)[C@@H]1CCCN1C(=O)CNC(=O)[C@H](CCCNC(=N)N)NC(=O)[C@H](CCCNC(=N)N)NC(=O)[C@@H]1CCCN1C(=O)[C@@H](N)CC(C)C)C(=O)O	1		
CC(C)C[C@H](NC(=O)[C@H](CC(C)C)NC(=O)[C@@H]1CCCN1C(=O)[C@@H](NC(=O)[C@@H]1CCCN1C(=O)CNC(=O)[C@H](Cc1c[nH]cn1)NC(=O)[C@@H](N)CC(C)C)[C@@H](C)O)C(=O)N[C@@H](Cc1ccc(O)cc1)C(=O)O			Ki (HLA-Cw07): 31 nM
CC(C)C[C@H](NC(=O)[C@H](CCCNC(=N)N)NC(=O)[C@@H]1CCCN1C(=O)CNC(=O)[C@H](CCCNC(=N)N)NC(=O)[C@H](CCCNC(=N)N)NC(=O)[C@@H]1CCCN1C(=O)[C@@H](N)CC(C)C)C(=O)NCC(=O)O	124		IC50 (B*0702): 124 nM
CC(C)C[C@H](NC(=O)[C@@H]1CCCN1C(=O)[C@H](C)N)C(=O)NCC(=O)NCC(=O)N[C@@H](C)C(=O)N[C@@H](C)C(=O)N[C@@H](CCCNC(=N)N)C(=O)N[C@@H](C)C(=O)O	115		IC50 (B*0702): 115 nM
CC[C@H](C)[C@H](NC(=O)[C@H](CC(N)=O)NC(=O)CNC(=O)[C@H](CC(C)C)NC(=O)[C@H](Cc1c[nH]c2ccccc12)NC(=O)[C@H](CO)NC(=O)[C@@H](N)CC(N)=O)C(=O)N[C@H](C(=O)N[C@@H](CCSC)C(=O)N[C@@H](Cc1ccc(O)cc1)C(=O)N[C@@H](C)C(=O)N1CCC[C@H]1C(=O)N[C@H](C(=O)N[C@@H](CC(C)C)C(=O)N[C@@H](Cc1c[nH]c2ccccc12)C(=O)O)[C@@H](C)O)[C@@H](C)CC		1.2	
CC[C@H](C)[C@H](NC(=O)[C@H](Cc1c[nH]cn1)NC(=O)[C@@H](NC(=O)[C@H](CC(C)C)NC(=O)CNC(=O)[C@@H](NC(=O)[C@H](Cc1ccccc1)NC(=O)[C@@H](NC(=O)[C@H](CO)NC(=O)[C@H](CCC(=O)O)NC(=O)[C@@H](N)Cc1c[nH]c2ccccc12)C(C)C)[C@@H](C)O)[C@@H](C)O)C(=O)N[C@@H](CC(=O)O)C(=O)N[C@@H](C)C(=O)N[C@@H](Cc1c[nH]cn1)C(=O)N[C@@H](Cc1ccccc1)C(=O)O		122	
CC(C)C[C@H](NC(=O)[C@H](C)NC(=O)[C@H](CCCNC(=N)N)NC(=O)[C@H](C)NC(=O)[C@H](C)N)C(=O)N[C@@H](C)C(=O)N[C@@H](Cc1c[nH]cn1)C(=O)NCC(=O)N[C@H](C(=O)O)C(C)C (H-AARALAHGV-OH; N-terminus and C-terminus assumed)	209		
CC[C@H](C)[C@H](NC(=O)[C@H](Cc1ccc(O)cc1)NC(=O)CNC(=O)[C@H](CCSC)NC(=O)[C@H](CC(C)C)NC(=O)[C@H](CC(=O)O)NC(=O)[C@H](C)N)C(=O)N1CCC[C@H]1C(=O)N[C@@H](CC(C)C)C(=O)N[C@H](C(=O)NCC(=O)N[C@@H](C)C(=O)N1CCC[C@H]1C(=O)N[C@@H](CC(C)C)C(=O)NCC(=O)O)C(C)C		8330	
C[C@H](N)C(=O)N1CCC[C@H]1C(=O)N[C@H](C(=O)NCC(=O)N[C@@H](CO)C(=O)NCC(=O)N[C@@H](CCCCN)C(=O)N[C@@H](CO)C(=O)N[C@H](C(=O)O)[C@@H](C)O)[C@@H](C)O (H-APTGSGKST-OH; N-terminus and C-terminus assumed)	370		IC50 (B*0702): 370 nM
CC(C)C[C@H](NC(=O)[C@H](CC(N)=O)NC(=O)CNC(=O)[C@@H](NC(=O)[C@H](C)NC(=O)[C@H](Cc1ccc(O)cc1)NC(=O)[C@H](CC(N)=O)NC(=O)[C@@H](NC(=O)CN)C(C)C)[C@@H](C)O)C(=O)N1CCC[C@H]1C(=O)NCC(=O)N[C@@H](CS)C(=O)N[C@@H](CO)C(=O)N[C@@H](Cc1ccccc1)C(=O)N[C@@H](CO)C(=O)O		4560	
CC[C@H](C)[C@H](NC(=O)[C@@H]1CCCN1C(=O)[C@H](C)NC(=O)[C@H](CC(C)C)NC(=O)[C@H](CC(C)C)NC(=O)[C@H](CCCNC(=N)N)NC(=O)[C@H](Cc1c[nH]c2ccccc12)NC(=O)CNC(=O)[C@H](CCCCN)NC(=O)[C@@H](N)CO)C(=O)N[C@H](C(=O)N[C@@H](C)C(=O)N[C@@H](Cc1ccc(O)cc1)C(=O)N[C@@H](C)C(=O)N[C@@H](CCC(N)=O)C(=O)O)[C@@H](C)O		0.4	
CC[C@H](C)[C@H](NC(=O)[C@H](CC(C)C)NC(=O)[C@H](C)NC(=O)CNC(=O)[C@@H](NC(=O)[C@H](Cc1c[nH]c2ccccc12)NC(=O)[C@@H](NC(=O)[C@H](Cc1ccc(O)cc1)NC(=O)[C@@H](N)CO)[C@@H](C)O)[C@@H](C)O)C(=O)N[C@H](C(=O)N1CCC[C@H]1C(=O)N[C@@H](CS)C(=O)N[C@@H](C)C(=O)N[C@@H](C)C(=O)N[C@@H](CCC(=O)O)C(=O)O)[C@@H](C)O		5.63	
CC[C@H](C)[C@H](NC(=O)[C@@H](NC(=O)[C@@H](N)[C@@H](C)O)[C@@H](C)O)C(=O)N[C@@H](CCSC)C(=O)N[C@@H](C)C(=O)N[C@@H](CCCCN)C(=O)N[C@@H](CC(N)=O)C(=O)N[C@@H](CCC(=O)O)C(=O)N[C@H](C(=O)N[C@@H](Cc1ccccc1)C(=O)N[C@@H](CS)C(=O)N[C@H](C(=O)N[C@@H](CCC(N)=O)C(=O)N1CCC[C@H]1C(=O)N[C@@H](CCC(=O)O)C(=O)O)C(C)C)C(C)C (H-TTIMAKNEVFCVQPE-OH; N-terminus and C-terminus assumed)		3730	
CC(C)C[C@H](NC(=O)[C@H](CCCCN)NC(=O)[C@H](CCCNC(=N)N)NC(=O)[C@H](CC(C)C)NC(=O)[C@H](CS)NC(=O)[C@H](CO)NC(=O)[C@H](C)N)C(=O)NCC(=O)N[C@H](C(=O)N1CCC[C@H]1C(=O)N1CCC[C@H]1C(=O)N[C@@H](CC(C)C)C(=O)N[C@@H](CCCNC(=N)N)C(=O)N[C@H](C(=O)N[C@@H](Cc1c[nH]c2ccccc12)C(=O)O)C(C)C)C(C)C		4.9	
